Activity calls are given as the source filed them. No cut-off for these calls is given here.
How the values were obtained:
[1] = biological target: T1, Tyrosinase (Agaricus bisporus) (UniProt O42713); test: Inhibition of diphenolase activity of mushroom tyrosinase using L-DOPA as substrate assessed as formation of the DOPA chrome at 100 uM preincubated for 10 mins followed by substrate addition measured for 1 min by spectrophotometric analysis relative to control
T1 sequence (whole entry): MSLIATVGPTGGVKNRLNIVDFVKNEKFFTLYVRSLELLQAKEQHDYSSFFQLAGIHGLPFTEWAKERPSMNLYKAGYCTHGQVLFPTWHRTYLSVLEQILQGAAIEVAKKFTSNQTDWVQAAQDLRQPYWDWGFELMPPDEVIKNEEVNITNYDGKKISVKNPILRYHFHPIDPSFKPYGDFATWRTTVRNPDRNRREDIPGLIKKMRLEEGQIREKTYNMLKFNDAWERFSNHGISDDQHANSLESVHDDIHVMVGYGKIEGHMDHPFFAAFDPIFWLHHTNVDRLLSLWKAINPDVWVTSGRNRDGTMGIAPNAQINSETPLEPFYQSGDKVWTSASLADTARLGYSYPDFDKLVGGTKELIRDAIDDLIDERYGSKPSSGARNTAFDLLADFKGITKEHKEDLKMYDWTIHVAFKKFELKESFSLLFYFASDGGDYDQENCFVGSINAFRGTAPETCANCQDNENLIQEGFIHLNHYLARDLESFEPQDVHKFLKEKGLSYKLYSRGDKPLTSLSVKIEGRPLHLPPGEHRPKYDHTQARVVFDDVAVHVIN

[2] = biological target: T2, Tyrosinase (Agaricus bisporus, UniProt O42713)
T2 sequence (O42713 whole entry): T1 sequence (whole entry)
Description: Inhibition of diphenolase activity of mushroom tyrosinase using L-DOPA as substrate assessed as formation of the DOPA chrome preincubated for 10 mins followed by substrate addition measured for 1 min by spectrophotometric analysis

[3] = Drug degradation at 20 degC measured for 15 days; type: physicochemical; settings: read-out: Drug degradation
[4] = species: Mus musculus; test: animal or person; settings: Kunming, Ear, po, read-out: INH
Description: Antiinflammatory activity in Kunming mouse assessed as inhibition of croton oil-induced ear swelling at 0.105 mmol/kg, ig administered for 3 days followed by croton oil challenge at 1 hrs post last dose measured after 4 hrs relative to control

[5] = biological target: T1, Tyrosinase (Agaricus bisporus); test: […] inhibition of diphenolase activity of mushroom tyrosinase assessed as L-DOPA oxidation at 10 to 50 uM
[6] = biological target: T1, Tyrosinase (Agaricus bisporus); test: Reversible inhibition of diphenolase activity of mushroom tyrosinase assessed as L-DOPA oxidation at 10 to 50 uM
[7] = biological target: T1, Tyrosinase (Agaricus bisporus); test: Competitive inhibition of diphenolase activity of mushroom tyrosinase assessed as L-DOPA oxidation at 15 to 45 uM by Lineweaver-Burk plot analysis

| inhibition [1] | IC50 [2] [µM] | Structure (SMILES) | also measured |
| --- | --- | --- | --- |
| 76.4% | 28 | COc1cccc2c1C(=O)c1c(OC)cc(/C=N/NC(N)=S)cc1C2=O |  |
| inactive |  | CCOCOc1cccc2c1C(=O)c1c(OCOCC)cc(C=O)cc1C2=O |  |
| inactive |  | CCO/N=C/c1cc(OC)c2c(c1)C(=O)c1cccc(OC)c1C2=O |  |
| inactive |  | CO/N=C/c1cc(OC)c2c(c1)C(=O)c1cccc(OC)c1C2=O |  |
| 12.9% | > 200 | CO/N=C/c1cc(O)c2c(c1)C(=O)c1cccc(O)c1C2=O |  |
| 9.86% | > 200 | COc1cccc2c1C(=O)c1c(OC)cc(CO)cc1C2=O | inhibition in vivo at 105 µmol/kg [4]: 35.2% |
| 55.4% | 92.4 | C=CCOc1cccc2c1C(=O)c1c(OCC=C)cc(C=O)cc1C2=O |  |
| inactive |  | C=CCOc1cccc2c1C(=O)c1c(OCC=C)cc(/C=N/OC)cc1C2=O |  |
| inactive |  | COc1cccc2c1C(=O)c1c(OC)cc(C=O)cc1C2=O | inhibition in vivo at 105 µmol/kg [4]: 42.6% |
| 49.4% | 109 | O=Cc1cc(O)c2c(c1)C(=O)c1cccc(O)c1C2=O | inhibition in vivo at 105 µmol/kg [4]: 50.6% |

Continued, compound first:

| Structure (SMILES) | inhibition [1] | IC50 [2] [µM] | also measured |
| --- | --- | --- | --- |
| C=CCOc1cccc2c1C(=O)c1c(OCC=C)cc(/C=N/O)cc1C2=O | 57% | 83.2 |  |
| C=CCOc1cccc2c1C(=O)c1c(OCC=C)cc(/C=N/OCC)cc1C2=O | inactive |  |  |
| O=C1c2cccc(O)c2C(=O)c2c(O)cc(/C=N/O)cc21 | inactive |  |  |
| OC[C@H]1O[C@@H](Oc2ccc(O)cc2)[C@H](O)[C@@H](O)[C@@H]1O [ARBUTIN] |  |  | degraded at 360 h [3]: 10% |
| NC(=S)N/N=C/c1cc(O)c2c(c1)C(=O)c1cccc(O)c1C2=O | 78.6% | 24.5 | inhibition [5]: Active |
| CC(=O)Oc1cccc2c1C(=O)c1c(OC(C)=O)cc(C(=O)O)cc1C2=O [DIACEREIN] |  |  | inhibition in vivo at 105 µmol/kg [4]: 39.1% |
| CCO/N=C/c1cc(O)c2c(c1)C(=O)c1cccc(O)c1C2=O | 18.3% | > 200 |  |
| CCCCOc1cccc2c1C(=O)c1c(OCCCC)cc(CO)cc1C2=O | 73.6% | 32.8 | inhibition [6]: Active; inhibition [7]: Active |
| C=CCOc1cccc2c1C(=O)c1c(OCC=C)cc(CO)cc1C2=O | 58.6% | 91 |  |
| O=C1c2cccc(O)c2C(=O)c2c(O)cc(/C=N/OCc3ccccc3)cc21 | inactive |  |  |
| CCOCOc1cccc2c1C(=O)c1c(OCOCC)cc(CO)cc1C2=O | 7.45% | > 200 |  |
| CCOCOc1cccc2c1C(=O)c1c(OCOCC)cc(/C=N/NC(N)=S)cc1C2=O | 65.3% | 58.1 |  |
